Target: T1, h-11βHSD1 (Homo sapiens, UniProt P28845)
T1 construct: made in house; host or cells: yeast
Test: 11βHSD1 enzyme assay (SPA)
Assay type: biochemical
Details: extract of yeast transformed with h-11βHSD1; 120 nM 3H-cortisone; 60 min at 30° C.
Description: 11βHSD1 Enzyme Assay Materials ^3H-cortisone and anti-rabbit Ig coated scintillation proximity assay (SPA) beads were purchased from Amersham Pharmacia Biotech, β-NADPH was from Sigma and rabbit anti-cortisol antibodies were from Fitzgerald. […] The test compounds were dissolved in DMSO (10 mM). All dilutions were performed in a buffer containing 50 mM TRIS-HCl (Sigma Chemical Co), 4 mM EDTA (Sigma Chemical Co), 0.1% BSA (Sigma Chemical Co), 0.01% Tween-20 (Sigma Chemical Co) and 0.005% bacitracin (Novo Nordisk A/S), pH=7.4. Optiplate 96 wells plates were supplied by Packard. The amount of ^3H-cortisol bound to the SPA beads was measured on TopCount NXT, Packard. […] The reaction was initiated by mixing the different components and was allowed to proceed under shaking for 60 min at 30° C. The reaction was stopped be the addition of 10 fold excess of a stopping buffer containing 500 μM carbenoxolone and 1 μM cortisone. Data was analysed using GraphPad Prism software.

T1 sequence (P28845 whole entry): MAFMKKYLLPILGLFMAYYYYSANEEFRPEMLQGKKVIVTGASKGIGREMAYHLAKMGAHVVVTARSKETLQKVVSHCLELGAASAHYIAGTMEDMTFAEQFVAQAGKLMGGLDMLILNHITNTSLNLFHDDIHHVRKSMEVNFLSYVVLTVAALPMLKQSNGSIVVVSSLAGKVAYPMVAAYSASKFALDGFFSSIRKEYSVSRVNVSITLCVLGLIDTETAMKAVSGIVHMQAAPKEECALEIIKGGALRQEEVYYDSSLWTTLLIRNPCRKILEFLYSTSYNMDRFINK

O=C(O)c1ccc(OCCC2CCN(C(=O)[C@]34C[C@H]5C[C@H](C[C@H](C5)C3)C4)CC2)cc1 [Example 3, 4-{2-[1-(Tricyclo[3.3.1.1.3.7]decanane-1-carbonyl)-piperidin-4-yl]-ethoxy}-benzoic acid]
IC50: 1320 nM

O=C(N1CCC(COc2ccccn2)CC1)[C@]12C[C@H]3C[C@H](C[C@H](C3)C1)C2 [Example 6]
IC50: 835 nM

From US20100168083A1, “ADAMANTANE DERIVATIVES FOR THE TREATMENT OF THE METABOLIC SYNDROME” (priority 2006, published 2010)
